Assay results: patent publication US8207208B2, “Angiotensin II receptor antagonists” (Merck Sharp & Dohme Corp., priority 2008, dated 2012)

What was measured:
[1] = test system: reactive nitrogen species (RNS), detected as S-nitrosothiols in rat plasma; assay: DAN assay of reactive nitrogen species in plasma after oral dosing of rats; assay type: in vivo, Sprague-Dawley rats; conditions: fasted SD rats, 40 mpk PO
Experimental: Mononitrate compounds that have been orally dosed to rats result in nitrites (metabolites of nitric oxide) circulating in plasma with maximal concentrations in the 0.5-2 μM range. Similar dosing of isosorbide mononitrate compounds described in this invention results in increased circulating nitrite concentrations. Biochemical evidence for the generation of NO in vivo in response to test compound administration was obtained from studies in Sprague-Dawley rats. Administration of test compound to fasted SD rats (40 mpk, PO) results in the appearance of reactive nitrogen species (RNS), assessed using the diaminonapthalene derivitization (DAN) assay.
RNS were detected as S-nitrosothiols (RNSOs) in EDTA-treated rat plasma using an HPLC fluorescent assay based on the method of Kostka and Park (Methods Enzymol. 1999, 301, 227-235). The method is based on the detection of fluorescent 2,3-naphthotriazole (NAT) formed in the reaction between acidified 2,3-diaminonaphthalene and the nitrosonium moiety of RSNOs released by HgCl2-mediated breakdown of the S—NO bond. The reaction mixture was chromatographed by reversed phase HPLC, and the fluorescent signal of the resolved NAT peak was quantified.
Plasma (20 μL) was first diluted 1:1 in H2O (20 μL) in a black polypropylene untreated microtiter plate. DAN reagent (100 μL per well, 100 μM DAN in 0.1 N HCl, 4 mM HgCl2) was added, and the plate was immediately sealed with an opaque plate mat, vortexed, and incubated in the dark for 10 min. Plates were centrifuged (2000×g, 5 min) and chilled to 4° C. before HPLC analysis. HPLC was carried out on an Agilent 1200 system using a chilled autosampler (4° C.). Samples were chromatographed on a C8 column (Zorbax Eclipse XDB-C8, 4.6×150 mm, 5 μm) with isocratic elution using a mobile phase of 67% MeOH, 0.1% NH4OAc and a flow rate of 2 mL/min. NAT fluorescence was monitored at 450 nm using an excitation wavelength of 360 nm. Calibration curves were prepared using NaNO2 in control plasma.
RNS change for Examples 2, 3, 4, 5, 7, 10, 11 and 12 was measured at 1, 3, 6 and 24 hours, and is shown below.

[2] = test system: vessel; assay: vessel relaxation assay

Row | Compound | DAN ΔRNS ([1]; 1 h) [µM] | DAN ΔRNS ([1]; 3 h) [µM] | DAN ΔRNS ([1]; 6 h) [µM] | DAN ΔRNS ([1]; 24 h) [µM] | EC50 [2] [µM]
1 | CCOc1nc2cccc(C(=O)O[C@H](C)OC(=O)O[C@H]3CO[C@H]4[C@@H]3OC[C@H]4O[N+](=O)[O-])c2n1Cc1ccc(-c2ccccc2-c2nnn[nH]2)cc1 [Example 4, (1S)-1-[({[(3S,3aR,6R,6aS)-6-(nitrooxy)hexahydrofuro[3,2-b]furan-3-yl]oxy}carbonyl)oxy]ethyl 2-ethoxy-1-{[2′-(1H-tetrazol-5-yl)biphenyl-4-yl]methyl}-1H-benzimidazole-7-carboxylate] | 0.9 ± 0.2 | 2.1 ± 1.4 | 4.2 ± 2.1 | 0.6 ± 0.3 | 8.9
2 | CCCCc1nc(Cl)c(C(=O)O[C@H]2CO[C@H]3[C@@H]2OC[C@H]3O[N+](=O)[O-])n1Cc1ccc(-c2ccccc2-c2nnn[nH]2)cc1 [Example 7, (3S,3aR,6R,6aS)-6-(nitrooxy)hexahydrofuro[3,2-b]furan-3-yl 2-butyl-4-chloro-1-{[2′-(1H-tetrazol-5-yl)biphenyl-4-yl]methyl}-1H-imidazole-5-carboxylate] | 5.4 ± 3.2 | 1.5 ± 1.2 | 0.2 ± 0.3 | -0.3 ± 0.2 | –
3 | CCCCc1nc(Cl)c(C(=O)O[C@H](C)OC(=O)O[C@H]2CO[C@H]3[C@@H]2OC[C@H]3O[N+](=O)[O-])n1Cc1ccc(-c2ccccc2-c2nnn[nH]2)cc1 [Example 2, (1S)-1-[({[(3S,3aR,6R,6aS)-6-(nitrooxy)hexahydrofuro[3,2-b]furan-3-yl]oxy}carbonyl)oxy]ethyl 2-butyl-4-chloro-1-{[2′-(1H-tetrazol-5-yl)biphenyl-4-yl]methyl}-1H-imidazole-5-carboxylate] | 2.3 ± 1.0 | 6.1 ± 1.1 | 4.5 ± 1.4 | 1.1 ± 0.7 | 9.5
4 | 2-{[(3S,3aR,6R,6aS)-6-(nitrooxy)hexahydrofuro[3,2-b]furan-3-yl]oxy}-2-oxoethyl 2-butyl-4-chloro-1-{[2′-(1H-tetrazol-5-yl)biphenyl-4-yl]methyl}-1H-imidazole-5-carboxylate [Example 9] | – | – | – | – | 5.1
5 | CCOc1nc2cccc(C(=O)OC(C)(C)OC(=O)O[C@H]3CO[C@H]4[C@@H]3OC[C@H]4O[N+](=O)[O-])c2n1Cc1ccc(-c2ccccc2-c2nnn[nH]2)cc1 [Example 1, 1-[({[(3S,6R)-6-(nitrooxy)hexahydrofuro[3,2-b]furan-3-yl]oxy}carbonyl)oxy]-1-methylethyl 2-ethoxy-1-{[2′-(1H-tetrazol-5-yl)biphenyl-4-yl]methyl}-1H-benzimidazole-7-carboxylate] | – | – | – | – | 14.2
6 | CCCCc1nc(Cl)c(C(=O)O[C@@H](C)OC(=O)O[C@H]2CO[C@H]3[C@@H]2OC[C@H]3O[N+](=O)[O-])n1Cc1ccc(-c2ccccc2-c2nnn[nH]2)cc1 [Example 3, (1R)-1-[({[(3S,3aR,6R,6aS)-6-(nitrooxy)hexahydrofuro[3,2-b]furan-3-yl]oxy}carbonyl)oxy]ethyl 2-butyl-4-chloro-1-{[2′-(1H-tetrazol-5-yl)biphenyl-4-yl]methyl}-1H-imidazole-5-carboxylate] | 0.5 ± 0.4 | 2.7 ± 0.5 | 3.0 ± 0.5 | 0.1 ± 0.7 | 15.4
7 | CCOc1nc2cccc(C(=O)O[C@@H](C)OC(=O)O[C@H]3CO[C@H]4[C@@H]3OC[C@H]4O[N+](=O)[O-])c2n1Cc1ccc(-c2ccccc2-c2nnn[nH]2)cc1 [Example 5, (1R)-1-[({[(3S,3aR,6R,6aS)-6-(nitrooxy)hexahydrofuro[3,2-b]furan-3-yl]oxy}carbonyl)oxy]ethyl 2-ethoxy-1-{[2′-(1H-tetrazol-5-yl)biphenyl-4-yl]methyl}-1H-benzimidazole-7-carboxylate] | 0.7 ± 0.5 | 2.5 ± 1.0 | 2.4 ± 1.2 | -0.3 ± 0.6 | –
8 | CCCCc1nc(Cl)c(C(=O)OCCC(=O)O[C@H]2CO[C@H]3[C@@H]2OC[C@H]3O[N+](=O)[O-])n1Cc1ccc(-c2ccccc2-c2nnn[nH]2)cc1 [Example 12, 3-{[(3S,3aR,6R,6aS)-6-(nitrooxy)hexahydrofuro[3,2-b]furan-3-yl]oxy}-3-oxopropyl 2-butyl-4-chloro-1-{[2′-(1H-tetrazol-5-yl)biphenyl-4-yl]methyl}-1H-imidazole-5-carboxylate] | 0.5 ± 0.2 | 1.5 ± 0.9 | 1.3 ± 0.6 | 0.0 ± 0.2 | 20.6
9 | CCCCc1nc(Cl)c(C(=O)O[C@@H](C)C(=O)O[C@H]2CO[C@H]3[C@@H]2OC[C@H]3O[N+](=O)[O-])n1Cc1ccc(-c2ccccc2-c2nnn[nH]2)cc1 [Example 11, (1S)-1-methyl-2-{[(3S,3aR,6R,6aS)-6-(nitrooxy)hexahydrofuro[3,2-b]furan-3-yl]oxy}-2-oxoethyl 2-butyl-4-chloro-1-{[2′-(1H-tetrazol-5-yl)biphenyl-4-yl]methyl}-1H-imidazole-5-carboxylate] | 1.1 ± 1.2 | 3.3 ± 1.5 | 1.8 ± 2.0 | 0.1 ± 1.8 | –
10 | CCCCc1nc(Cl)c(C(=O)O[C@H](C)C(=O)O[C@H]2CO[C@H]3[C@@H]2OC[C@H]3O[N+](=O)[O-])n1Cc1ccc(-c2ccccc2-c2nnn[nH]2)cc1 [Example 10, (1R)-1-methyl-2-{[(3S,3aR,6R,6aS)-6-(nitrooxy)hexahydrofuro[3,2-b]furan-3-yl]oxy}-2-oxoethyl 2-butyl-4-chloro-1-{[2′-(1H-tetrazol-5-yl)biphenyl-4-yl]methyl}-1H-imidazole-5-carboxylate] | 0.7 ± 0.3 | 2.0 ± 0.4 | 1.9 ± 0.7 | 0.1 ± 0.3 | –
